The values below come from patent publication EP4603105A1, “PHARMACEUTICAL COMPOSITION CONTAINING CYCLIC COMPOUND HAVING SELECTIVE KRAS INHIBITORY EFFECT AGAINST HRAS AND NRAS” (CHUGAI SEIYAKU KABUSHIKI KAISHA, priority 2022, dated 2024).

Assay [1] has as its target GDP-bound KRAS wild-type protein (Homo sapiens, UniProt P01116). Briefly: Binding to KRAS by surface plasmon resonance (SPR), dissociation constant KD. Conditions: Single Cycle Kinetics. An outline of the steps: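 Recombinant RAS proteins bearing a biotinylated Avi tag and loaded with GDP served as the captured ligand, recaptured fresh every cycle. Binding responses were referenced to an uncoated surface and a buffer-only blank cycle. Dissociation constants were obtained by 1:1 model fitting at 30°C.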
A general note: SPR reads the build-up and loss of mass on a sensor chip optically.

The target in assay [2] is GDP-bound NRAS wild-type protein (Homo sapiens, UniProt P01111). Briefly: Binding to NRAS by surface plasmon resonance (SPR), KD and KD ratio to KRAS. Conditions: ratio of KD for GDP-bound NRAS wild-type protein to KD for KRAS. An outline of the steps: (§1)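 Each cycle, GDP-bound biotin-Avi RAS was captured (~100–300 RU), compound concentrations were injected low to high for 75 s each at 100 µL/min, then the chip was regenerated. Buffer: HBS pH 7.4, 10 mM MgCl2, 10 µM GDP, 1 mM DTT, 4% DMSO; 30°C. KD from a 1:1 binding model.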

For the next assay, the target named is HRAS wild-type protein (Homo sapiens, UniProt P01112). As to the kind of experiment: Binding to HRAS by surface plasmon resonance (SPR), KD and KD ratio to KRAS. Conditions: ratio of KD for HRAS wild-type protein to KD for KRAS. An outline of the steps:
as §1

Assay [3] deals with human lung cancer strain NCI-H441. As to the kind of experiment: NCI-H441 cell proliferation inhibitory activity (CellTiter-Glo, 4 days). It counts as cell-based. Conditions: NCI-H441 cells, 4 days, read-out: NCl-H441 IC50. An outline of the steps: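 Signal came from […] measured per well once the reagent was added. Beforehand, cells were cultured at 37°C and 5% carbon dioxide on a compound series serially diluted in dimethyl sulfoxide.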

HRAS wild-type protein, sequence (P01112 whole entry): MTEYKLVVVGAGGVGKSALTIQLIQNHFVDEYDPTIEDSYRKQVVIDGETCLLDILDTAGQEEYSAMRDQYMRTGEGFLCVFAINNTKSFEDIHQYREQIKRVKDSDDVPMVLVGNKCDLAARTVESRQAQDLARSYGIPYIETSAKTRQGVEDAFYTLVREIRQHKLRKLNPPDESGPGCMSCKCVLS
GDP-bound NRAS wild-type protein, sequence (P01111 whole entry): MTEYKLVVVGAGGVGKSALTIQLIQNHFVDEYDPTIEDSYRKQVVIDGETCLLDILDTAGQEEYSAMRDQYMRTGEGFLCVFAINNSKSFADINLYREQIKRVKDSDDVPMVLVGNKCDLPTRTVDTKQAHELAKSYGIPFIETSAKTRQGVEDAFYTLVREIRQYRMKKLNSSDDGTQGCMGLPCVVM
GDP-bound KRAS wild-type protein, sequence (P01116 1-188 isoform P01116-2): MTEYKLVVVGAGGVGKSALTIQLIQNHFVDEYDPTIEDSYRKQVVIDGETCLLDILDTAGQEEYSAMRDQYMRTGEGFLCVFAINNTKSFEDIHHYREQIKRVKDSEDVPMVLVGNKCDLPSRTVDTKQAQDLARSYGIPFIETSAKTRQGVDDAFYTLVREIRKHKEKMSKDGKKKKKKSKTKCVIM

As usually defined, the Kd is the concentration at which binding is half-saturated. Low values mean tighter binding, high ones weaker binding. By IC50 is commonly meant the concentration that inhibits the measured activity by half. For the molecule `CCC[C@H]1C(=O)N[C@@H]([C@@H](C)CC)C(=O)N(C)CC(=O)N(C)[C@H]2C/C=C\CCN(C2=O)[C@@H](Cc2ccc(C(F)(F)F)cc2)C(=O)N(C)CC(=O)N[C@@H](CCc2ccc(C(F)(F)F)c(Cl)c2)C(=O)N2CC[C@H](OC)[C@H]2C(=O)N(C)C2(CCC2)C(=O)N(C)[C@@H](C2CCCC2)C(=O)N(C)[C@H](C(=O)N(C)C)CC(=O)N1C` [PP3231], in assay [1], the equilibrium dissociation constant (Kd) stood at 0.064 nM. The “NRAS /KRAS” value in assay [2] is “A (a compound having 10 or more and less than 20 is denoted as A)”. At HRAS wild-type protein, the “HRAS /KRAS” value is “A (a compound having 10 or more and less than 20 is denoted as A)”. For the same molecule, the IC50 in assay [3] came to 7.4 nM.

The molecule `CCC[C@H]1C(=O)N[C@@H]([C@@H](C)CC)C(=O)N(C2CC2)CC(=O)N(C)[C@H]2C/C=C\CCN(C2=O)[C@@H](Cc2ccc(C)cc2)C(=O)N(C)CC(=O)N[C@@H](CCc2ccc(C(F)(F)F)c(Cl)c2)C(=O)N2CC[C@H](OC)[C@H]2C(=O)N(C)C2(CCC2)C(=O)N(C)[C@@H](C2CCCC2)C(=O)N(C)[C@H](C(=O)N(C)C)CC(=O)N1C` [PP3233] returned a dissociation constant (Kd) in assay [1] of 0.25 nM. Besides, in assay [2], the “NRAS /KRAS” value was “A (a compound having 10 or more and less than 20 is denoted as A)”. Moreover, the “HRAS /KRAS” value on HRAS wild-type protein is “A (a compound having 10 or more and less than 20 is denoted as A)”. In assay [3], the concentration for half-maximal inhibition (IC50) was found to be 9.3 nM.

With `CCC[C@H]1C(=O)N[C@@H]([C@@H](C)CC)C(=O)N2CCC[C@H]2C(=O)N(C)[C@H]2C/C=C\CCN(C2=O)[C@@H](Cc2ccc(C)cc2)C(=O)N(C)CC(=O)N[C@@H](CCc2ccc(C(F)(F)F)c(Cl)c2)C(=O)N2CC[C@H](OC)[C@H]2C(=O)N(C)C2(CCC2)C(=O)N(C)[C@@H](C2CCCC2)C(=O)N(C)[C@H](C(=O)N(C)C)CC(=O)N1C` [PP3235], in assay [1], the affinity, expressed as Kd, was 0.21 nM. Besides, in assay [2], the “NRAS /KRAS” value is “A (a compound having 10 or more and less than 20 is denoted as A)”. Besides, the “HRAS /KRAS” value on HRAS wild-type protein was “A (a compound having 10 or more and less than 20 is denoted as A)”. Moreover, in assay [3], the IC50 turned out to be 7 nM.

With `C#CC[C@H]1C(=O)N[C@@H]([C@@H](C)CC)C(=O)N(C)CC(=O)N(C)[C@H]2C/C=C\CCN(C2=O)[C@@H](Cc2ccc(C)cc2)C(=O)N(C)CC(=O)N[C@@H](CCc2ccc(C(F)(F)F)c(OC)c2)C(=O)N2C[C@H](OCC)C[C@H]2C(=O)N(C)C2(CCC2)C(=O)N(C)[C@@H](C2CCCC2)C(=O)N(C)[C@H](C(=O)N(C)C)CC(=O)N1C` [PP3236], in assay [1], the affinity, expressed as Kd, was 0.028 nM. Further, the “NRAS /KRAS” value in assay [2] is “A (a compound having 10 or more and less than 20 is denoted as A)”. Moreover, the “HRAS /KRAS” value on HRAS wild-type protein is “B (a compound having 3 or more and less than 10 is denoted as B)”. Further, the half-maximal inhibitory concentration (IC50) in assay [3] was 3.9 nM.

In assay [1], `CCC[C@H]1C(=O)N[C@@H]([C@@H](C)CC)C(=O)N(C)CC(=O)N(C)[C@H]2C/C=C\CCN(C2=O)[C@@H](Cc2ccc(C)cc2)C(=O)N(C)CC(=O)N[C@@H](CCc2ccc(C(F)(F)F)c(Cl)c2)C(=O)N2CC[C@H](OC)[C@H]2C(=O)N(C)C2(CCC2)C(=O)N(C)[C@@H](C2CCCC2)C(=O)N(C)[C@H](C(=O)N(C)C)CC(=O)N1C` [PP3237] yielded a Kd of 0.057 nM. In assay [2], the “NRAS /KRAS” value was “A (a compound having 10 or more and less than 20 is denoted as A)”. For the same molecule, on HRAS wild-type protein, the “HRAS /KRAS” value is “B (a compound having 3 or more and less than 10 is denoted as B)”. For the same molecule, in assay [3], the half-inhibitory concentration (IC50) was found to be 6.1 nM.

The molecule `CCC[C@H]1C(=O)N[C@@H]([C@@H](C)CC)C(=O)N(C2CC2)CC(=O)N(C)[C@H]2C/C=C\CCN(C2=O)[C@@H](Cc2ccc(C(F)(F)F)cc2)C(=O)N(C)CC(=O)N[C@@H](CCc2ccc(C(F)(F)F)c(OC)c2)C(=O)N2CC[C@H](OC)[C@H]2C(=O)N(C)C2(CCC2)C(=O)N(C)[C@@H](C2CCCC2)C(=O)N(C)[C@H](C(=O)N(C)C)CC(=O)N1C` [PP3239] had a dissociation constant (Kd) in assay [1] of 0.23 nM. For the same molecule, the “NRAS /KRAS” value in assay [2] was “A (a compound having 10 or more and less than 20 is denoted as A)”. Moreover, on HRAS wild-type protein, the “HRAS /KRAS” value is “A (a compound having 10 or more and less than 20 is denoted as A)”. Also, in assay [3], the IC50 amounted to 6.5 nM.

`C#CC[C@H]1C(=O)N[C@@H]([C@@H](C)CC)C(=O)N(C)CC(=O)N(C)[C@H]2C/C=C\CCN(C2=O)[C@@H](Cc2ccc(C)cc2)C(=O)N(C)CC(=O)N[C@@H](CCc2ccc(C(F)(F)F)c(Cl)c2)C(=O)N2C[C@H](OCC)C[C@H]2C(=O)N(C)C2(CCC2)C(=O)N(C)[C@@H](C2CCCC2)C(=O)N(C)[C@H](C(=O)N(C)C)CC(=O)N1C` [PP3240] had a Kd in assay [1] of 0.024 nM. The “NRAS /KRAS” value in assay [2] was “A (a compound having 10 or more and less than 20 is denoted as A)”. In addition, the “HRAS /KRAS” value at HRAS wild-type protein was “A (a compound having 10 or more and less than 20 is denoted as A)”. In addition, in assay [3], the IC50 worked out at 2.3 nM.

With `CCC[C@H]1C(=O)N[C@@H]([C@@H](C)CC)C(=O)N2CCC[C@H]2C(=O)N(C)[C@H]2C/C=C\CCN(C2=O)[C@@H](Cc2ccc(C(F)(F)F)cc2)C(=O)N(C)CC(=O)N[C@@H](CCc2ccc(C(F)(F)F)c(OC)c2)C(=O)N2CC[C@H](OC)[C@H]2C(=O)N(C)C2(CCC2)C(=O)N(C)[C@@H](C2CCCC2)C(=O)N(C)[C@H](C(=O)N(C)C)CC(=O)N1C` [PP3241], in assay [1], the equilibrium dissociation constant (Kd) is 0.31 nM. Also, the “NRAS /KRAS” value in assay [2] was “A (a compound having 10 or more and less than 20 is denoted as A)”. The “HRAS /KRAS” value at HRAS wild-type protein is “B (a compound having 3 or more and less than 10 is denoted as B)”. In addition, in assay [3], the IC50 came out at 10.5 nM.

`C#CC[C@H]1C(=O)N[C@@H]([C@@H](C)CC)C(=O)N(C2CC2)CC(=O)N(C)[C@H]2C/C=C\CCN(C2=O)[C@@H](Cc2ccc(C(F)(F)F)cc2)C(=O)N(C)CC(=O)N[C@@H](CCc2ccc(C(F)(F)F)c(OC)c2)C(=O)N2C[C@H](OCC)C[C@H]2C(=O)N(C)C2(CCC2)C(=O)N(C)[C@@H](C2CCCC2)C(=O)N(C)[C@H](C(=O)N(C)C)CC(=O)N1C` [PP3242] returned an equilibrium dissociation constant (Kd) in assay [1] of 0.097 nM. For the same molecule, the “NRAS /KRAS” value in assay [2] was “A (a compound having 10 or more and less than 20 is denoted as A)”. On HRAS wild-type protein, the “HRAS /KRAS” value was “A (a compound having 10 or more and less than 20 is denoted as A)”. Besides, the concentration for half-maximal inhibition (IC50) in assay [3] came out at 6 nM.

Turning to `CCC[C@H]1C(=O)N[C@@H]([C@@H](C)CC)C(=O)N(C)CC(=O)N(C)[C@H]2C/C=C\CCN(C2=O)[C@@H](Cc2ccc(C(F)(F)F)cc2)C(=O)N(C)CC(=O)N[C@@H](CCc2ccc(C(F)(F)F)c(OC)c2)C(=O)N2CC[C@H](OC)[C@H]2C(=O)N(C)C2(CCC2)C(=O)N(C)[C@@H](C2CCCC2)C(=O)N(C)[C@H](C(=O)N(C)C)CC(=O)N1C` [PP3243], the Kd in assay [1] is 0.066 nM. In assay [2], the “NRAS /KRAS” value was “A (a compound having 10 or more and less than 20 is denoted as A)”. Also, the “HRAS /KRAS” value on HRAS wild-type protein is “A (a compound having 10 or more and less than 20 is denoted as A)”. For the same molecule, in assay [3], the half-inhibitory concentration (IC50) came to 5.3 nM.

Consider `C#CC[C@H]1C(=O)N[C@@H]([C@@H](C)CC)C(=O)N(C2CC2)CC(=O)N(C)[C@H]2C/C=C\CCN(C2=O)[C@@H](Cc2ccc(C(F)(F)F)cc2)C(=O)N(C)CC(=O)N[C@@H](CCc2cc(F)c(C(F)(F)F)c(F)c2)C(=O)N2C[C@H](OCC)C[C@H]2C(=O)N(C)C2(CCC2)C(=O)N(C)[C@@H](C2CCCC2)C(=O)N(C)[C@H](C(=O)N(C)C)CC(=O)N1C` [PP3244], for which binding in assay [1] was put at a Kd of 0.1 nM. For the same molecule, in assay [2], the “NRAS /KRAS” value was “A (a compound having 10 or more and less than 20 is denoted as A)”. For the same molecule, the “HRAS /KRAS” value at HRAS wild-type protein is “A (a compound having 10 or more and less than 20 is denoted as A)”. In addition, in assay [3], the half-maximal inhibitory concentration (IC50) stood at 1.9 nM.
